The term inhibition denotes the change of the read-out against control, counted positive when it falls. Low readings indicate little suppression, high ones strong suppression.

Consider 12 compounds from patent publication EP0237138A1, “Heterocyclic compounds, their preparation and, pharmaceutical compositions containing them” (YAMANOUCHI PHARMACEUTICAL CO. LTD., priority 1986, dated 1987).

Test [1] concerns Platelet aggregation in PRP. As to the kind of experiment: Platelet aggregation-inhibitory activity (arachidonate-induced aggregation in platelet-rich plasma, Born's method). As to conditions: aggregation induced by arachidonate.
Test [2] deals with T1, human placenta aldose reductase (Homo sapiens, UniProt P15121).
T1 construct: a human placenta aldose reductase was purified to a single protein; from tissue; host or cells: human placenta
The test can be described thus: Aldose reductase-inhibitory activity (rate of disappearance of NADPH, glyceraldehyde substrate). Type of test: biochemical. The settings on record: for inhibition at 1 µM: 10^-6(M); for inhibition at 0.1 µM: 10^-7(M). How it is done:
The compound of the present invention, aldose reductase and nicotinamide adenine dinucleotide phosphate (NADPH) are dissolved in a buffer of pH 6.2 and incubated for 10 minutes at 25°C; glyceraldehyde is added thereto to start the reaction, and the rate of disappearance of NADPH is defined to be the enzyme activity of the aldose reductase.

As to `COc1ccc2c(c1)CCCC2=C1SC(=S)N(CC(=O)O)C1=O` [Example 7, 5-(6-methoxy-1,2,3,4-tetrahydro-1-natphylidene)-4-oxo-2-thioxo-3-thiazolidine-acetic acid], the “Platelet Aggregation Inhibition” value in test [1] (200 (μM)) was 100%. Moreover, in test [2], testing at 1 µM gave an inhibition of 93% and the inhibition at 0.1 µM was 65%.

In test [2], `COc1cccc2c1CCCC2=C1SC(=S)N(CC(=O)O)C1=O` [Example 11, 5-(5-methoxy-1,2,3,4-tetrahydro-1-naphthylidene)-4-oxo-2-thioxo-3-thiazolidine-acetic acid] yielded an inhibition at 1 µM of 89% and an inhibition at 0.1 µM of 40%.

Take `O=C1NC(=S)SC1=C1CCCS(=O)(=O)c2ccccc21` [Example 49, 2,3,4,5-tetrahydro-5-(4-oxo-2-thioxo-5-thiazolidinylidene)-1-benzothiepine 1,1-dioxide]: in test [2], the inhibition at 1 µM came to 65% and the inhibition at 0.1 µM turned out to be 23%.

Take `O=C(O)c1ccc(N2C(=O)C(=C3CCS(=O)(=O)c4ccccc43)SC2=S)cc1` [Example 54, 4-[3-(p-carboxyphenyl)-4-oxo-2-thioxo-5-thiazolidinylidene]thiochroman 1,1-dioxide]: the “Platelet Aggregation Inhibition” value in test [1] (200 (μM)) came to 65%. In addition, in test [2], 1 µM produced 30% inhibition and the inhibition at 0.1 µM was 15%.

Compound `O=C1NC(=S)SC1=C1C(=O)Nc2ccc(Cl)cc21` [Example 66, 5-chloro-3-(4-oxo-2-thioxo-5-thiazolidinylidene)-2-indolinone] showed an inhibition at 1 µM in test [2] of 72%.

Take `O=C1NC(=S)SC1=C1C(=O)Nc2ccc(Br)cc21` [Example 67, 5-bromo-3-(4-oxo-2-thioxo-5-thiazolidinylidene)-2-indolinone]: testing at 1 µM in test [2] gave an inhibition of 64%.

`N=C1NC(=O)C(=C2CCS(=O)(=O)c3ccccc32)S1` [Example 95, 4-(2-imino-4-oxo-5-thiazolidinylidene)thiochroman 1,1-dioxide]: in test [1] (400 (μM)), the “Platelet Aggregation Inhibition” value turned out to be 43%. In test [2], the inhibition at 1 µM came out at 65% and testing at 0.1 µM gave an inhibition of 19%.

Take `O=C1NC(=O)/C(=C2\CCS(=O)(=O)c3ccccc32)S1` [Example 99B, (Z)-4-(2,4-dioxo-5-thiazolidinylidene)thiochroman 1,1-dioxide]: in test [2], 1 µM produced 87% inhibition and the inhibition at 0.1 µM came to 42%.

Regarding `O=C1NC(=S)SC1=C1CCSc2ccccc21` [Example 105, 4-oxo-5-(4-thiochromanylidene)-2-thioxo-thiazolidine], in test [2], the inhibition at 1 µM is 83% and at 0.1 µM the inhibition was 29%.

Consider `O=C1NC(=S)SC1=C1C=CS(=O)(=O)c2ccccc21` [Example 119], for which, in test [1] (400 (μM)), the “Platelet Aggregation Inhibition” value is reported as 84%. In test [2], the inhibition at 1 µM was determined as 53% and testing at 0.1 µM gave an inhibition of 37%.

In the case of `O=C1NC(=S)SC1=C1C(=O)Nc2ccccc21` [Example 146, 3-(4-oxo-2-thioxo-3-thiazolidinylidene)-2-indolinone], the inhibition at 1 µM in test [2] came to 56%.

As for `O=C1NC(=O)[C@@]2(CCOc3ccc(F)cc32)N1` [Sorbinil, reference compound], in test [2], testing at 1 µM gave an inhibition of 53.6% and the inhibition at 0.1 µM was determined as 15%.
